Data reported in PMC7241010, “In Vivo and In Vitro Study of N-Methyltaurine on Pharmacokinetics and Antimuscle Atrophic Effects in Mice” (ACS Omega, 2020).
Like-named read-outs stand apart in the source and are kept apart here.

What was measured:
C2C12 myotubes [1] = settings: in vitro exposure to dexamethasone; cited from earlier work
[2] = rats; cited from earlier work
taurine transport system = settings: human intestine cells, cited from earlier work
[3] = Pharmacokinetics and oral bioavailability of NMT in mice (plasma NMT by HPLC); assay type: in vivo, mouse; settings: for AUC(0-t): read-out: AUC0–180min (converted)
Procedure: To study the pharmacokinetic parameters and the oral bioavailability of NMT, we tested the serum concentration of NMT after p.o. or i.v. injection of NMT (Figure 2). Biological fluid was sampled following the injection of NMT. […] Oral bioavailability is defined as the fraction of the dose that reaches the systemic circulation. Blood samples were collected at 10 to 180 min after NMT administration and then examined by HPLC.
All experimental procedures were approved by the Institutional Animal Care and Use Committee of the Fukui Prefectural University. Three-month-old male ICR mice were used for this study. […] Blood samples were collected from the facial vein (for i.v. injection) or the tail vein (for p.o. injection) at 10, 20, 30, 60, 120, and 180 min after NMT administration.
(§1) Plasma samples were mixed with an equal volume of 5% sulfosalicylic acid (SSA) containing the internal standard chemical sarcosine (0.1 mM). Tissues in 10 volumes of 5% SSA containing an internal control were homogenized using a Polytron homogenizer. Samples were centrifuged, and the supernatant was filtered with 0.45 μm filters and then neutralized with NaHCO3.
(§2) NMT was measured by HPLC after derivatization with 9-fluorenylmethyloxycarbonyl chloride (FMOC-Cl) according to a previous report with brief modification.[49] First, equal volumes of o-phthalaldehyde (OPA) reagent (5 mM OPA, 23 mM 3-mercaptopropionic acid, 10 mM boric acid, pH 10.4) was added to acid-extracted samples and incubated at room temperature for 1 min for the derivatization of the primary amine. Then, 1 volume of FMOC-Cl reagent (3 mM FMOC-Cl in acetone) was added to the mixture and incubated for additional 1 min for the derivatization of residual secondary amine. After dilution with HPLC mobile phase buffer A (10 mM potassium phosphate, pH 7.3), samples were subjected to HPLC analysis performed on an UltiMate 3000 rapid separation binary system (Thermo Fisher, USA) or Prominence HPLC system (Shimadzu, Japan). Samples were injected into a ZORBAX Eclipse Plus C18 column (Agilent, USA). Mobile phases A (10 mM potassium phosphate, pH 7.3) and B (acetonitrile) were used. The column oven temperature was set at 40 °C. The flow rate of the mobile phase was 1.5 mL/min. The gradient of the mobile phase was increased from 2 to 88% buffer B (from 0.84 to 11.9 min) and was kept at 100% buffer B for 3 min followed by 2% for 15 min. N-Methyltaurine derivatized by FMOC-Cl was monitored by a fluorescence detector (excitation: 266 nm, emission: 305 nm) and diode array detector (Shimadzu).
Pharmacokinetic parameters were calculated by using R (Package “PK”, ver. 1.3-4).

[4] = Tissue distribution of NMT after 0.5% NMT in drinking water; assay type: in vivo, mouse; settings: mice
Procedure: To evaluate the tissue distribution of NMT in mice after administration in the drinking water, the concentration of NMT was measured in tissues and serum 4 days after the original administration (Figure 3). The tissue concentration of NMT was analyzed by HPLC. NMT was widely distributed in the tissues of mice, including in brain, liver, kidney, heart, and muscles. The tissue concentration of NMT was much higher than that of serum concentration, with one exception, the skin (Figure 3).
To measure NMT in the serum and tissues after long-term treatment with NMT, NMT dissolved in the drinking water (0.5%) was given to mice for 4 days. After that, mice were anesthetized by medetomidine (0.3 mg/kg body weight; FUJIFILM Wako Pure Chemical), butorphanol (5 mg/kg body weight; FUJIFILM Wako Pure Chemical), and midazolam (4 mg/kg body weight; FUJIFILM Wako Pure Chemical), and then blood and tissues were collected. Tissues were kept in −80 °C until use.
as §1, §2

C2C12 myotubes [5] = assay: Dex-induced myotube atrophy in C2C12 cells (myotube diameter); assay type: cell-based, mouse; settings: 24 h
Procedure: To explore the beneficial effect of NMT against skeletal muscle atrophy in mice, we investigated its protective effect using cultures of C2C12 myotubes.
C2C12 mouse myoblasts were purchased from ATCC (American Type Culture Collection) and were cultured in DMEM containing 10% fetal bovine serum. Cell lines were not tested for mycoplasma contamination in the present study. To induce differentiation of the myotubes, cells were cultured in DMEM containing 2% fetal bovine serum for 1 week. After differentiation, cells were treated with Dex (final concentration, 50 μM) with or without NMT.[28] Myotube diameter was measured from microscopic images taken after treatment with Dex.

Atrogin-1 and MuRF1 = assay: Gene expression of Atrogin-1 and MuRF1 in C2C12 myotubes (qRT-PCR); assay type: cell-based, mouse; settings: C2C12 myotubes treated with Dex and NMT
Procedure: We tested whether these ubiquitin ligases are involved in the suppressive effect of NMT against muscle atrophy in the C2C12 myotube.
Total RNA was isolated from C2C12 cells using Sepasol Super G (Nacalai Tesque, Kyoto, Japan), and cDNA was generated by using ReverTra Ace (Toyobo, Osaka, Japan). Quantitative RT-PCR analysis was performed using Applied Biosystems StepOne (Applied Biosystems) with THUNDERBIRD SYBR qPCR Mix (Toyobo). The primers used are as follows: Atrogin-1 forward: 5′-TTCAG CAGCC TGAAC TACGA-3′, reverse: 5′-AGTAT CCATG GCGCT CCTTC-3′. MuRF1 forward: 5′-GCGTG ACCAC AGAGG GTAAA-3′, reverse: 5′-CTCTG CGTCC AGAGC GTG-3′. GAPDH forward: 5′-GCCGG TGCTG AGTAT GTCGT-3′, reverse: 5′-CCCTT TTGGC TCCAC CCTT-3′.

ICR mice = assay: Dexamethasone-induced muscle atrophy model in ICR mice; assay type: in vivo, mouse
Procedure: Next, to investigate the effect of NMT on skeletal muscle atrophy, a mouse atrophy model induced by Dex was employed[41] (Figure 5). Mice were administered with Dex daily (i.p., 10 mg/kg body weight) and maintained on drinking water either with no addition or containing 0.5% NMT.
To induce muscle atrophy in ICR mice, Dex was suspended in saline (10 mg/mL), and the mixture was intraperitoneally (i.p.) injected at 10 mg/kg body weight once a day for 10 days.[41] Body weight was monitored daily. Then, mice were euthanized by cervical dislocation, and muscles were isolated from the mice. The isolated tissue was immediately froze in liquid nitrogen and stored at −80 °C.

[6] = test system: taurine uptake in brain slices; settings: cited from earlier work
[7] = drinking water containing 0.5% NMT for 4 days, average
[8] = Dex i.p. 10 mg/kg daily for 10 days, 0.5% NMT in drinking water

NCCS(=O)(=O)O [taurine]
effect on Dex-induced muscle atrophy in vitro (C2C12 myotubes [1]): attenuates muscle atrophy | oral bioavailability [2]: ~100% | concentration at which transport activity is almost saturated (taurine transport system): ~50 µM | Km (taurine transport system; read-out: Km of taurine transport): 4.8 µM

CNCCS(=O)(=O)O [NMT, N-Methyltaurine]
AUC(0-t) ([3]; male, ICR, mouse, iv, i.v. 0.5 mg/kg BW, plasma): 900 ng·h/mL | bioavailability ([3]; male, ICR, mouse, plasma, oral, 0.5 mg/kg, p.o. 0.5 mg/kg BW vs i.v. 0.5 mg/kg BW, read-out: bioavailability): 96% | bioavailability ([3]; male, ICR, mouse, plasma, oral, 5 mg/kg BW, p.o. 5 mg/kg BW vs i.v. 0.5 mg/kg BW, read-out: bioavailability): 58% | AUC(0-t) ([3]; male, ICR, mouse, po, p.o. 0.5 mg/kg BW, plasma): 865 ng·h/mL | AUC(0-t) ([3]; male, ICR, mouse, po, p.o. 5 mg/kg BW, plasma): 5250 ng·h/mL | bioavailability ([3]; p.o. 0.5 mg/kg BW vs i.v. 0.5 mg/kg BW, 0.5 mg/kg): 96.1% | Kp at 4 days ([4]; ICR, mouse, 0.5 % in drinking water, oral NMT, various tissues, skin is an exception, read-out: tissue NMT relative to serum concentration of NMT): 10 to 100 | Tissue NMT, brain [4, 7]: 0.84 nmol/g wet | Tissue NMT, heart [4, 7]: 3.5 nmol/g wet | Tissue NMT, kidney [4, 7]: 0.39 nmol/g wet | Tissue NMT, liver [4, 7]: 0.50 nmol/g wet | Tissue NMT, muscle [4, 7]: 0.17 nmol/g wet | Tissue NMT, serum [4, 7]: 0.033 nmol/g wet | Tissue NMT, skin [4, 7]: 0.019 nmol/g wet | effect on Dex-induced decline in myotube width (C2C12 myotubes [5]; Dex 50 μM + NMT 20 mM): prevented the decline in myotube width | effect on Dex-induced Atrogin-1 and MuRF1 gene expression (Atrogin-1 and MuRF1): did not act by downregulating those genes | effect on Dex-induced loss in wet weight of gastrocnemius muscle (ICR mice; [8]): attenuated Dex-induced loss in wet weight | effect on Dex-induced loss in wet weight of tibial anterior muscle (ICR mice; [8]): attenuated Dex-induced loss in wet weight | effect on Dex-induced body weight loss (ICR mice; Dex i.p. 10 mg/kg daily, 0.5% NMT in drinking water): attenuated body weight loss | effect on taurine uptake [6]: inhibits taurine uptake

C[C@@H]1C[C@H]2[C@@H]3CCC4=CC(=O)C=C[C@]4(C)[C@@]3(F)[C@@H](O)C[C@]2(C)[C@@]1(O)C(=O)CO [Dex, dexamethasone, reference compound]
effect on myotube width (C2C12 myotubes [5]; Dex 50 μM): reduced the width of the myotube | effect on body weight (ICR mice; Dex i.p. 10 mg/kg body weight daily): caused a continuous loss of body weight
